Results as given in patent US20030224038A1, “Cross-linkable phosphonate-containing supramolecular complexes and their use for delivery of therapeutic and diagnostic agents” (priority 2002, published 2003).

Key:
[1] = TEM imaging of negatively stained dodeca-5,7-diynoyl phosphonic acid vesicles (size); assay type: physicochemical
Description: Twice the value of the CMC determined for n-dodecanephosphonic acid (2.94×10^−4 M)^4 was used to assure aggregate formation in these experiments due to the limited amount of the final product. All samples were prepared in the manner described by Schulz, supra, using solutions buffered to a pH of 5.5 with 5 mM MES.
Samples prepared in the above manner were imaged using TEM by negatively staining the samples with 1% uranyl acetate. FIG. 2 is a picture of unpolymerized vesicles of dodeca-5,7-diynoyl phosphonic acid within four days of their initial preparation. It appears from this micrograph that the aggregates are small and relatively spherical compared to the fully saturated aggregates of n-dodecanephosphonic acid prepared as described hereinbelow. The average size of these vesicles is roughly 50 nm in diameter with the sizes of individual aggregates ranging from 4 nm to over 400 nm. […] This behavior was only observed with freshly prepared aggregates prior to their exposure to light. One explanation for this behavior is that it represents an artifact of drying the sample in the presence of the metal stain used to visualize it.
FIG. 3 is a micrograph of the same sample after one week. It is noteworthy that the vesicles are still spherical though they now appear to be smaller and have a more irregular exterior surface. […] Moreover, there was no evidence of the rolled cylinders previously imaged in the fresh aggregate solutions.

[2] = Dissolution in buffered aqueous solution; assay type: physicochemical
[3] = TEM size of n-dodecanephosphonic acid aggregates, metal-free and metallated with iron salts; assay type: physicochemical; conditions: metal-free aggregates, 3×10^−4 molar in 5 mM MES
Description: (§1) An aggregate was prepared using n-dodecanephosphonic acid. Specifically, a 3×10^−4 molar (on average) solution of n-dodecanephosphonic acid was used, which was prepared by adding 17 mg dodecanephosphonic acid to 250 mL of a 5 mM solution of morpholinoethanesulfonic acid (MES) buffer solution. This solution was heated in a boiling water bath for 40-60 minutes. The solution was then cooled and allowed to sit undisturbed for 3 days (following Shulz' procedure (21)). This preparation was used to produce the desired micelles and the reported critical micelle concentration (CMC) was independently confirmed through measurement of the surface tension by means of a Wilhelmy Plate Balance (22). […] It has also been determined that these aggregates are stable over the pH range of 4-6, with minimal structural changes.
The choice of biologically compatible metal ion used to bind to the micelle exterior directly influences the size and the shape of the resulting aggregates. Iron (III) salts are preferred because they are relatively inexpensive, readily available in several simple forms and known to be biologically compatible. However, other metal ions may be used if desired, including, without limitation, Zr (IV), Mg(II), Ca(II), Co(II) and Zn(II) salts. […]

[4] = pH stability of n-dodecanephosphonic acid aggregates; assay type: physicochemical; conditions: minimal structural changes
Description: as §1

[5] = reported value, independently confirmed by surface tension measurement; cited from earlier work

CCCCC#CC#CCCCC(=O)P(=O)(O)O [dodeca-5,7-diynoyl phosphonic acid, Dodeca-5,7-diynoyl phosphonic acid]
average size of aggregates (diameter) ([1]; same sample after one week): ~50 nm
largest vesicles present in the sample ([1]; same sample after one week): ≤ 100 nm
average size of vesicles (diameter) ([1]; unpolymerized vesicles, within four days of preparation, pH 5.5, 5 mM MES): roughly 50 nm
solubility in buffered aqueous solutions [2]: readily dissolves in buffered aqueous solutions to form vesicles

CCCCCCCCCCCCP(=O)(O)O [n-dodecanephosphonic acid]
average diameter of aggregates [3]: 20-120 nm
pH range over which aggregates are stable [4]: 4-6
critical micelle concentration (CMC) [5]: 294 µM
